Test results from patent US12239632B2, “Asymmetric allyl tryptamines” (Alexander Shulgin Research Institute, Inc., priority 2021, dated 2025).
Counter-ions that a name gives are not always drawn.

How the values were obtained:
[1] = molecular target: T1, HTR2A (Homo sapiens, UniProt P28223); experiment: Calcium mobilization assay, HTR2A agonist mode; format: cell-based; details: for agonist activity at HTR2A: agonist mode
T1 construct: expressed in transfected cells
Description: (§1) Compound activity was analyzed using CBIS data analysis suite (ChemInnovation, CA). For agonist mode assays, percentage activity was calculated using the following formula: % Activity=100%×(mean RFU of test sample−mean RFU of vehicle control)/(mean MAX RFU control ligand −mean RFU of vehicle control).

[2] = molecular target: T1, HTR2A; experiment: Calcium mobilization assay, HTR2A antagonist mode; format: cell-based
Description: Cell lines were expanded from freezer stocks and seeded into multi-well microplates. Then, the plates were incubated at 37° C. for an appropriate amount of time and loaded with Dye Loading buffer. […] Activity was measured on a FLIPR Tetra. Calcium mobilization was monitored for 2 minutes.

[3] = molecular target: T2, HTR2B (Homo sapiens, UniProt P41595); experiment: Calcium mobilization assay, HTR2B agonist mode; format: cell-based
T2 construct: expressed in transfected cells
Description: as §1

[4] = molecular target: T2, HTR2B; experiment: Calcium mobilization assay, HTR2B antagonist mode; format: cell-based
Description: Activation of the GPCR results in the release of calcium from intracellular stores and an increase in dye fluorescence that can be measured.
Cell lines were expanded from freezer stocks and seeded into multi-well microplates. Then, the plates were incubated at 37° C. for an appropriate amount of time and loaded with Dye Loading buffer. To determine compound agonist activity, cells were incubated with the sample to induce a response, and HBSS/20 mM Hepes was added using a FLIPR Tetra (MDS). Activity was measured on a FLIPR Tetra. Calcium mobilization was monitored for 2 minutes.
To determine compound antagonist activity, cells were pre-incubated with the sample followed by an post-incubation administration of the compound with 3×EC80 agonist using FLIPR. Compound antagonist activity was measured on a FLIPR Tetra (MDS) and calcium mobilization was monitored for 2 minutes.
For antagonist mode assays, percentage inhibition was calculated using the following formula: % Inhibition=100%×(1−(mean RFU of test sample−mean RFU of vehicle control)/(mean RFU of EC80 control−mean RFU of vehicle control)).

[5] = molecular target: T3, HTR1A (Homo sapiens, UniProt P08908); experiment: In vitro functional activity, HTR1A agonist mode; format: cell-based
T3 construct: expressed in transfected cells
T3 sequence (P08908 1-422): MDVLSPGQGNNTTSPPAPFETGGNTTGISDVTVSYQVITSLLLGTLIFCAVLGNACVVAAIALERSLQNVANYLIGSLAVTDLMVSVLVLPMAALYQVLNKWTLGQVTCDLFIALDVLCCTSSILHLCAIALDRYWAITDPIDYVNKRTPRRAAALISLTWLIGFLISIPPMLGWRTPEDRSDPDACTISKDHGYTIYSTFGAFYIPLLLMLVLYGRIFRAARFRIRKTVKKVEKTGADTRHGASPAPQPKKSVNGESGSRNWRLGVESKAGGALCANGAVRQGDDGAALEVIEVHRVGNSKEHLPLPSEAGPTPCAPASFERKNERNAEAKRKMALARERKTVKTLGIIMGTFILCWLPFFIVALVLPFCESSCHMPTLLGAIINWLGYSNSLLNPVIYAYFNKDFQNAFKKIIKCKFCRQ
Description: (§2) Such activity was determined to assess potential neuromodulatory activity and safety liabilities.

[6] = molecular target: T4, HTR1B (Homo sapiens, UniProt P28222); experiment: In vitro functional activity, HTR1B agonist mode; format: cell-based
T4 construct: expressed in transfected cells
Description: as §2

[7] = molecular target: T5, HTR6 (Homo sapiens, UniProt P50406); experiment: PathHunter beta-Arrestin assay, HTR6 agonist mode; format: cell-based
T5 construct: expressed in transfected cells
Description: The assay monitors restoration of ß-galactosidase (β-Gal) as a marker of GPCR activation and recruitment of β-Arrestin to the receptor.
3.5 μL of concentrated sample was added to cells and incubated at 37° C. or room temperature for 90 to 180 minutes. Vehicle concentration was 1%.
Assay signal was generated through a single addition of 50% v/v of PathHunter Detection reagent cocktail, followed by a one hour incubation at room temperature. Microplates were read following signal generation with a plate reader set to detect chemiluminescent signals. Compound activity was analyzed using CBIS data analysis suite (ChemInnovation, CA).

[8] = molecular target: T6, SERT (Homo sapiens, UniProt P31645); experiment: cell-based; details: blocker mode; read-out: EC50/IC50, SERT (Blocker)
T6 construct: expressed in transfected cells
Description: (§3) Methods—Monoamine Transporter Assay: Neurotransmitter uptake via transporters was measured using the Neurotransmitter Transporter Uptake Assay Kit from Molecular Devices. […] Increased intracellular fluorescence intensity following uptake of biogenic amine neurotransmitters via transporters is measured and can be run in a kinetic or endpoint mode.
(§4) Compound was added and the mixture was incubated. Following compound incubation, dye was added to the wells and the plate was re-incubated. Microplates were then transferred to a PerkinElmer Envision™ instrument for fluorescence signal detection.
(§5) Compound activity was analyzed using CBIS data analysis (ChemInnovation, CA). For blocker mode assays, percentage inhibition was calculated using the following formula: % Inhibition=100%×(1−(mean RLU of test sample−mean RLU of vehicle control)/(mean RLU of positive control−mean RLU of vehicle control)).

[9] = molecular target: T7, DAT (Homo sapiens, UniProt Q01959); experiment: Neurotransmitter transporter uptake assay, DAT blocker mode; format: cell-based
T7 construct: expressed in transfected cells
Description: as §3, §4, §5

[10] = molecular target: T8, NET (Homo sapiens, UniProt P23975); experiment: Neurotransmitter transporter uptake assay, NET blocker mode; format: cell-based
T8 construct: expressed in transfected cells
Description: as §3, §4, §5

[11] = molecular target: T9, MAOA (Homo sapiens, UniProt P21397); experiment: MAO-A enzyme assay (kynuramine substrate); format: biochemical
T9 construct: purchased Sigma
T9 sequence (P21397 1-527): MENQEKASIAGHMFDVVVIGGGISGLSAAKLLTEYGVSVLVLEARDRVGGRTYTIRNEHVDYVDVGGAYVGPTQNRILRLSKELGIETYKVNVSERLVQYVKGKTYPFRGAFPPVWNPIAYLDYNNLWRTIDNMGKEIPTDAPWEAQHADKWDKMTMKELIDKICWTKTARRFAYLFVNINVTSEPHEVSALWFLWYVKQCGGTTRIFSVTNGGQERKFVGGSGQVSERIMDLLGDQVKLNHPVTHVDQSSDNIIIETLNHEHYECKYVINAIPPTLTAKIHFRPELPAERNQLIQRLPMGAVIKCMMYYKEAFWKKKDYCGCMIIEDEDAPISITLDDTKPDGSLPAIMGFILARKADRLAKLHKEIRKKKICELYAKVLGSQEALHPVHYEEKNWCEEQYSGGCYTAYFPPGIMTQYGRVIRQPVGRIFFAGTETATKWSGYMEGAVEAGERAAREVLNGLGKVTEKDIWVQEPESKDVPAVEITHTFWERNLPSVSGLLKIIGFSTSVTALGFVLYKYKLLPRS
Description: Methods—Enzyme Assays: Enzymatic activity was determined by measuring either the consumption of substrate or production of product over time. For MAO-A (Sigma), enzyme and test compound were preincubated for 15 minutes at 37° C. before substrate addition. The reaction was initiated by addition of kynuramine and incubated at 37° ° C. for 30 minutes. The reaction was terminated by addition of NaOH. The amount of 4-hydroxyquinoline formed was determined through spectrofluorimetric readout with the emission detection at 380 nm and excitation wavelength 310 nm.

[12] = molecular target: T10, CAV1.2 (Homo sapiens, UniProt Q13936); experiment: FLIPR membrane potential ion channel assay, CAV1.2 blocker; format: cell-based
T10 construct: expressed in transfected cells
Description: (§6) Methods—Ion Channel Assay: Membrane potential changes were measured using the FLIPR® Membrane potential Assay Kit. A fluorescent indicator dye in combination with a quencher was used to reflect real-time membrane potential changes associated with ion channel activation and ion transporter proteins. Calcium channel CAV1.2, potassium channel hERG, and sodium channel NAV1.5 were tested.
(§7) To determine agonist and antagonist activity, cell lines were expanded from freezer stocks, seeded into multi-well microplates, and incubated at 37° C. Cells were then loaded with dye and incubated again.
(§8) For agonist determination, cells were incubated with the sample a different dilutions to induce a response. For antagonist determination, cells were pre-incubated with the sample at different dilutions. Following dye administration, the sample was added to the cells in the presence of EC80 agonist and then re-incubated at room temperature in the dark.
(§9) For antagonist mode assays, percentage inhibition was calculated using the following formula: % Inhibition=100%×(1−(mean RLU of test sample−mean RLU of vehicle control)/(mean RLU of EC80 control−mean RLU of vehicle control)).

[13] = molecular target: T11, hERG (Homo sapiens, UniProt Q12809); experiment: FLIPR membrane potential ion channel assay, hERG blocker; format: cell-based
T11 construct: expressed in transfected cells
Description: as §6, §7, §8, §9

[14] = molecular target: T12, NAV1.5 (Homo sapiens, UniProt Q14524); experiment: FLIPR membrane potential ion channel assay, NAV1.5 blocker; format: cell-based
T12 construct: expressed in transfected cells
Description: as §6, §7, §8, §9

[15] = molecular target: T13, ADRA1A (Homo sapiens, UniProt P35348); experiment: In vitro functional activity, ADRA1A antagonist mode; format: cell-based
T13 construct: expressed in transfected cells
T13 sequence (P35348 1-466): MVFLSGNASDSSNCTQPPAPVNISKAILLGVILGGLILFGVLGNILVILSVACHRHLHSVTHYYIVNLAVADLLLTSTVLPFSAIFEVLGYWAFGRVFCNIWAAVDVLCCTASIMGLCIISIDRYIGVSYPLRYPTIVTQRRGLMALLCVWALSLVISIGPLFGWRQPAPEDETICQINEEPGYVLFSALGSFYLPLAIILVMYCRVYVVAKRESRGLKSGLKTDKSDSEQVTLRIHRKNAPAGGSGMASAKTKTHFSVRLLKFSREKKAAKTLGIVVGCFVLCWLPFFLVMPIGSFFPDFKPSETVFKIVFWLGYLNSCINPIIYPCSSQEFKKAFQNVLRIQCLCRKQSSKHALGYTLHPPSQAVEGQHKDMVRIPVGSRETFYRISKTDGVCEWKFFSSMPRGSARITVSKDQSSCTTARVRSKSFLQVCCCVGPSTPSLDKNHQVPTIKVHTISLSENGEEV
Description: (§10) The assay monitors the activation of a GPCR via Gi and Gs secondary messenger signaling, using ß-Gal as a functional reporter. […] To determine Gi/Gs agonism, media was aspirated from cells and replaced with 15 μL 2:1 HBSS/10 mM HEPES:cAMP XS+Ab reagent. Concentrated (4×) test compound in assay buffer was added to cells and incubated at 37° C. or room temperature for 30 or 60 minutes. For Gi agonist activation, cells were incubated with EC80 forskolin in addition to a test compound. Vehicle concentration was 1%.

[16] = molecular target: T14, ADRA2A (Homo sapiens, UniProt P08913); experiment: In vitro functional activity, ADRA2A antagonist mode; format: cell-based
T14 construct: expressed in transfected cells
T14 sequence (P08913 1-465): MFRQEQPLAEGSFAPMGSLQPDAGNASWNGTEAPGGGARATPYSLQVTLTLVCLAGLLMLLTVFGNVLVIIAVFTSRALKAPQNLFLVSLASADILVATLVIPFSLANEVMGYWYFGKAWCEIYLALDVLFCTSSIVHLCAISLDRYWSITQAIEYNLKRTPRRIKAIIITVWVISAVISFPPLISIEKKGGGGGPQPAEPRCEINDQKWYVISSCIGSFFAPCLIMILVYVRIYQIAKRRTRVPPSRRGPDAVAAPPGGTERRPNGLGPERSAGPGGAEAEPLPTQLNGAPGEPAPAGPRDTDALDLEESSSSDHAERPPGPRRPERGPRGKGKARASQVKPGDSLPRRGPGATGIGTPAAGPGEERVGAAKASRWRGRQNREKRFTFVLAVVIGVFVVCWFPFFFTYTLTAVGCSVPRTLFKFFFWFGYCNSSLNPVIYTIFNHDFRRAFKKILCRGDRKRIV
Description: as §10

[17] = molecular target: T15, DRD2S (Homo sapiens, UniProt P14416); experiment: HitHunter cAMP assay, DRD2S agonist mode; format: cell-based
T15 construct: expressed in transfected cells
Description: as §10
Compound activity was analyzed using CBIS data analysis suite (ChemInnovation, CA). For Gs agonist mode assays, percentage activity was calculated using the following formula: % Activity=100%×(mean RLU of test sample−mean RLU of vehicle control)/(mean RLU of MAX control−mean RLU of vehicle control).
For Gi agonist mode assays, percentage activity was calculated using the following formula: % Activity=100%×(1−(mean RLU of test sample−mean RLU of MAX control)/(mean RLU of vehicle control−mean RLU of MAX control)).

[18] = molecular target: T16, HRH1 (Homo sapiens, UniProt P35367); experiment: cell-based; format: cell-based; details: antagonist mode; for IC50: read-out: EC50/IC50, HRH1 (Antagonist)
T16 construct: expressed in transfected cells
T16 sequence (P35367 whole entry): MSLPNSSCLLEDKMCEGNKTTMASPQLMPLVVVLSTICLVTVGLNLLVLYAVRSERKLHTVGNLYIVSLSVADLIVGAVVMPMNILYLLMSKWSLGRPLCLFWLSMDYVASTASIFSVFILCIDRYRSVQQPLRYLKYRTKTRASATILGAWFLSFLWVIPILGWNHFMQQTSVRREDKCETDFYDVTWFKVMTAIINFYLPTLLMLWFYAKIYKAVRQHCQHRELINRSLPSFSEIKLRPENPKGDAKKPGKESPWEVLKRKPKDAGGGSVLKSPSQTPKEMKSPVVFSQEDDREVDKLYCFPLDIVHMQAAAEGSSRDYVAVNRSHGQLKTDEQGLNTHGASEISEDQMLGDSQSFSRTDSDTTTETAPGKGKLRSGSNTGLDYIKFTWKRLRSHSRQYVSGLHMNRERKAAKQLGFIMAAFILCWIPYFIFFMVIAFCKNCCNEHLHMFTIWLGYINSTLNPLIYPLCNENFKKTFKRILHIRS
Description: as §2

T8 sequence (P23975 whole entry): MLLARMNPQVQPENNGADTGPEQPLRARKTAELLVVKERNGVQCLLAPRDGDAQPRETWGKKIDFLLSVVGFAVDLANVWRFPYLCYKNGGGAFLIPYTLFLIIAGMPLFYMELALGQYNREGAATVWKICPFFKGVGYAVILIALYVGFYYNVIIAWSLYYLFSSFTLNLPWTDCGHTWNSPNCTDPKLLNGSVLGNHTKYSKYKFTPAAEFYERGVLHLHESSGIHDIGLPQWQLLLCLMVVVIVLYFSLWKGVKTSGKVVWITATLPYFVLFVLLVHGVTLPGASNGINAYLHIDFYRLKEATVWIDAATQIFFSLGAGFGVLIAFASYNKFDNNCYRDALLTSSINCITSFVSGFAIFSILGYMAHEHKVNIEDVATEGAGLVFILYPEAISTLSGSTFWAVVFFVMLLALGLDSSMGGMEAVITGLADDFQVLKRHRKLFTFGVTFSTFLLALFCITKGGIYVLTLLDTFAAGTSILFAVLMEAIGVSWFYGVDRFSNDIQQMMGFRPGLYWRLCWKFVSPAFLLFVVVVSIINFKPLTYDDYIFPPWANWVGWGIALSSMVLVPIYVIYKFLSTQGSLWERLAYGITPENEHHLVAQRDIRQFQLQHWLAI
T12 sequence (Q14524 whole entry): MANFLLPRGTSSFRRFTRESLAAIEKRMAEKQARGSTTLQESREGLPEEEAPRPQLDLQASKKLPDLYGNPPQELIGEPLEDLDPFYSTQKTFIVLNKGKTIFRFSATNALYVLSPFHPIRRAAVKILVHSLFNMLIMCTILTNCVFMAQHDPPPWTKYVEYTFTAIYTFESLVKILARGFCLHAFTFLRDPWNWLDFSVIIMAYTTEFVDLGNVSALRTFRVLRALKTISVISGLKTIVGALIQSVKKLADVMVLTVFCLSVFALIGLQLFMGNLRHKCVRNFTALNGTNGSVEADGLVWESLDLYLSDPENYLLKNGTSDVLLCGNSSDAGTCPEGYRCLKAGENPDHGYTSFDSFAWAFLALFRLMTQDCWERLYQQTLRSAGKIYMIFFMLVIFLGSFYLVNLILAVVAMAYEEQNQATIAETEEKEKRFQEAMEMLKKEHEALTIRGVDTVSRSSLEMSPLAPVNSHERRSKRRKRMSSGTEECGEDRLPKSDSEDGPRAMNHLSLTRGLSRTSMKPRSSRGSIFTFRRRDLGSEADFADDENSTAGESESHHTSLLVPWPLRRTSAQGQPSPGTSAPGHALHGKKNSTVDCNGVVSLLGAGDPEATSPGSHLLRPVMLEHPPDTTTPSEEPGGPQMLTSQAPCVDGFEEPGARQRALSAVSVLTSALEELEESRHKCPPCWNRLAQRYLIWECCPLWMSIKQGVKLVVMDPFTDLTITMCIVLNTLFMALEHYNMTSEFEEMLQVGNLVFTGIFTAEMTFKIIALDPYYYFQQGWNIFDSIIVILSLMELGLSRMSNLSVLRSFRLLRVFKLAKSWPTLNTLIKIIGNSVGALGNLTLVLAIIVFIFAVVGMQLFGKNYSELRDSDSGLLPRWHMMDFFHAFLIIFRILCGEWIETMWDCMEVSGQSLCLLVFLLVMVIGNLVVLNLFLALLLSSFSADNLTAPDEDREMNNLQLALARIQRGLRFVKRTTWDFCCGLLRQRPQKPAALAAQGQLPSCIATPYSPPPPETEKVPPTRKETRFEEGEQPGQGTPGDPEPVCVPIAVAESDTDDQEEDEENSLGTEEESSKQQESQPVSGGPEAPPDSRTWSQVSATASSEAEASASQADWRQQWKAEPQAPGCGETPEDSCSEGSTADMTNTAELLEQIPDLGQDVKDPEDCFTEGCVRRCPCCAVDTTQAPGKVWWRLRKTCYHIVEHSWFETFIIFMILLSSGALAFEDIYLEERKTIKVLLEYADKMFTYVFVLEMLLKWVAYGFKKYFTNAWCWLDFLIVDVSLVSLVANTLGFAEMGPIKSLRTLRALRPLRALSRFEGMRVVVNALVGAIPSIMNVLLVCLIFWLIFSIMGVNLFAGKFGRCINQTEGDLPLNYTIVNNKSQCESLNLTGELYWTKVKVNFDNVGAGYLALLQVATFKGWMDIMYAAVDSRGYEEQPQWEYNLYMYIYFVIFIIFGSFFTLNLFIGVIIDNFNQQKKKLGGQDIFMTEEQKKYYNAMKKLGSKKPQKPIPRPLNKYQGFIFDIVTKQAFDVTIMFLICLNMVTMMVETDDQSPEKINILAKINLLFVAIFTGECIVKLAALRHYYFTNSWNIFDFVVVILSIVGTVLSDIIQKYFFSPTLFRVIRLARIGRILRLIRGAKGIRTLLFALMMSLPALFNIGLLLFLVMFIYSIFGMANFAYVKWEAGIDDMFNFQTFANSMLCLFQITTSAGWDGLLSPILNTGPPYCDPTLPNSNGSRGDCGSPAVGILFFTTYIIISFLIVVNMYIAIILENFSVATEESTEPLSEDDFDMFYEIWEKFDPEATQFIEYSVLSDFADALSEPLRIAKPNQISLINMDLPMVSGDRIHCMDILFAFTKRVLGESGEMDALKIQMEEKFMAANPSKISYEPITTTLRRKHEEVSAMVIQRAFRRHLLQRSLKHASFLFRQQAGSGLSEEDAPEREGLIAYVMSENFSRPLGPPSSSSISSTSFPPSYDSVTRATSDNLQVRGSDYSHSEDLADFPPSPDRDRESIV
T1 sequence (P28223 whole entry): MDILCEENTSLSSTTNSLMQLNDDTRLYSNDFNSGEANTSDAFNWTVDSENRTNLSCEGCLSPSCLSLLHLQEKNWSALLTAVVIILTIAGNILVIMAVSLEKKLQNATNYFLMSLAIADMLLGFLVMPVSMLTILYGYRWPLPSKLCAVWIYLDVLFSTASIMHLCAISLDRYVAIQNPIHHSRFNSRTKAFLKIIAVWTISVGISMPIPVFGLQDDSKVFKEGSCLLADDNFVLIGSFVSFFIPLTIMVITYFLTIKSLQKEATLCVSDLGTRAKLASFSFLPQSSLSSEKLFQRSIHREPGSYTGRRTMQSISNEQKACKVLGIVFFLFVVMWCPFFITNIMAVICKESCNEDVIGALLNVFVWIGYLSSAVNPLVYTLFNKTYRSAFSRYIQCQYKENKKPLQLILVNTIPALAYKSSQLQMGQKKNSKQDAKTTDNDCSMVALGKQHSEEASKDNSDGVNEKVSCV
T11 sequence (Q12809 whole entry): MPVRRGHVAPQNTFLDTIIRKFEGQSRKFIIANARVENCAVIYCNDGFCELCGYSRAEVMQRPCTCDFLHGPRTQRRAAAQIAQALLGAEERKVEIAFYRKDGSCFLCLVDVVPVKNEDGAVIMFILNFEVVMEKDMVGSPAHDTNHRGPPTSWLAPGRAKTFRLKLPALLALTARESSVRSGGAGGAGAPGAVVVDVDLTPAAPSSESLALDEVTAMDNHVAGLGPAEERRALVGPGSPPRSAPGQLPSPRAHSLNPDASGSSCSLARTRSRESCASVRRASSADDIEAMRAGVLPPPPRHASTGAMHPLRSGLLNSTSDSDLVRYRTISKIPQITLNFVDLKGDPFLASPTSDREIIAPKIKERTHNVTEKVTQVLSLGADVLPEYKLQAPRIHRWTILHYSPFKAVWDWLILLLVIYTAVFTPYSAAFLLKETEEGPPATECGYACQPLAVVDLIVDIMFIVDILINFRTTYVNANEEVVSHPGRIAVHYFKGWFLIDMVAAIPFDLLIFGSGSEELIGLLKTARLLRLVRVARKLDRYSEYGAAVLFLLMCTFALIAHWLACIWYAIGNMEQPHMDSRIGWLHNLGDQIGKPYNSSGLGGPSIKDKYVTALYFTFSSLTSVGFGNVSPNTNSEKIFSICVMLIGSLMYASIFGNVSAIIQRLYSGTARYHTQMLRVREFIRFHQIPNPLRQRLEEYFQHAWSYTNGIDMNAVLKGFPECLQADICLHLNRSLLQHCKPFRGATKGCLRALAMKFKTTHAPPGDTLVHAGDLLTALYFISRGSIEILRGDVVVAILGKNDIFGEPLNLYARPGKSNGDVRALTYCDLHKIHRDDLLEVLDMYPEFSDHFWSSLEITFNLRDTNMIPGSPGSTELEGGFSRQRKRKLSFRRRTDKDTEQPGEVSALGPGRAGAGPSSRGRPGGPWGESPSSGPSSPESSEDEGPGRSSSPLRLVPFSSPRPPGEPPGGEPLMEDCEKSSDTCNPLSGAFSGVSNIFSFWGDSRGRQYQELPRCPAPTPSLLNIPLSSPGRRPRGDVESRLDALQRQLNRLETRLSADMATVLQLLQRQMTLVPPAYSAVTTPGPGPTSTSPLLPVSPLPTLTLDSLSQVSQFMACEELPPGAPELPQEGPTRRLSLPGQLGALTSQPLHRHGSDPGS

Q: `C=CCN(CCc1c[nH]c2ccc(OC)cc12)C(C)C` [ASR-3001, N-isopropyl-N-(2-(5-methoxy-1H-indol-3-yl)ethyl)prop-2-en-1-amine hydrochloride] was tested. Which EC50 [1] did it give?
A: The EC50 was 9.85 nM.

Q: And the “agonist activity at HTR2A” value [1]?
A: The value was “potent agonist activity”.

Q: And the IC50 [2]?
A: The IC50 was 64.6 nM.

Q: What about the EC50 [3] of the same molecule?
A: Its EC50 is 87.4 nM.

Q: What about the IC50 [4] of the same molecule?
A: Its IC50 is 51.1 nM.

Q: What about the EC50 [5] of the same molecule?
A: The EC50 was 0.642 µM.

Q: And the EC50 [6]?
A: The EC50 was 46.8 nM.

Q: And the EC50 [7]?
A: Its EC50 is 420 nM.

Q: And the IC50 [8]?
A: Its IC50 is 6.84 µM.

Q: And the IC50 [9]?
A: Its IC50 is greater than 10 µM.

Q: And the IC50 [10]?
A: Its IC50 is greater than 10 µM.

Q: What about the IC50 [11] of the same molecule?
A: The IC50 was greater than 10 µM.

Q: What about the IC50 [12] of the same molecule?
A: The IC50 was greater than 10 µM.

Q: What about the IC50 [13] of the same molecule?
A: Its IC50 is greater than 10 µM.

Q: What about the IC50 [14] of the same molecule?
A: The IC50 was greater than 10 µM.

Q: What about the IC50 [15] of the same molecule?
A: Its IC50 is greater than 10 µM.

Q: What about the IC50 [16] of the same molecule?
A: The IC50 was greater than 10 µM.

Q: What about the EC50 [17] of the same molecule?
A: The EC50 was greater than 10 µM.

Q: And the IC50 [18]?
A: Its IC50 is greater than 10 µM.

Q: How did the EC50 [1] turn out when `C=CCN(CCc1c(C)[nH]c2ccccc12)C(C)C` [ASR-3002, N-isopropyl-N-(2-(2-methyl-1H-indol-3-yl)ethyl)prop-2-en-1-amine hydrochloride] was run?
A: The EC50 was 2600 nM.

Q: What about the “agonist activity at HTR2A” value [1] of the same molecule?
A: The value was “potent agonist activity”.

Q: What about the IC50 [2] of the same molecule?
A: Its IC50 is 4130 nM.

Q: And the EC50 [3]?
A: The EC50 was 1280 nM.

Q: And the IC50 [4]?
A: Its IC50 is 498 nM.

Q: And the EC50 [5]?
A: Its EC50 is greater than 10 µM.

Q: What about the EC50 [6] of the same molecule?
A: Its EC50 is 4950 nM.

Q: What about the EC50 [7] of the same molecule?
A: Its EC50 is 1680 nM.

Q: And the IC50 [8]?
A: The IC50 was greater than 10 µM.

Q: And the IC50 [9]?
A: The IC50 was greater than 10 µM.

Q: What about the IC50 [10] of the same molecule?
A: Its IC50 is greater than 10 µM.

Q: What about the IC50 [11] of the same molecule?
A: Its IC50 is greater than 10 µM.

Q: And the IC50 [12]?
A: Its IC50 is greater than 10 µM.

Q: What about the IC50 [13] of the same molecule?
A: Its IC50 is greater than 10 µM.

Q: What about the IC50 [14] of the same molecule?
A: The IC50 was greater than 10 µM.

Q: What about the IC50 [15] of the same molecule?
A: Its IC50 is 8.52 µM.

Q: What about the IC50 [16] of the same molecule?
A: The IC50 was 0.383 µM.

Q: And the EC50 [17]?
A: The EC50 was 4.48 µM.

Q: And the “agonistic activity for dopamine receptor D2 short isoform” value ([17]; agonist mode)?
A: The value was “agonistic activity”.

Q: And the IC50 [18]?
A: Its IC50 is greater than 10 µM.

Q: Which results are given for `C=CCN(CCc1c[nH]c2ccccc12)C(C)C` [ASR-3003, N-(2-(1H-indol-3-yl)ethyl)-N-isopropylprop-2-en-1-amine hydrochloride]?
A: EC50 [1]: 462 nM; agonist activity at HTR2A [1]: potent agonist activity; IC50 [2]: 1410 nM; EC50 [3]: 2540 nM; IC50 [4]: 507 nM; EC50 [5]: > 10 µM; EC50 [6]: 813 nM; EC50 [7]: 4260 nM; IC50 [8]: 2.37 µM; IC50 [9]: > 10 µM; IC50 [10]: > 10 µM; IC50 [11]: > 10 µM; IC50 [12]: > 10 µM; IC50 [13]: > 10 µM; IC50 [14]: > 10 µM; IC50 [15]: > 10 µM; IC50 [16]: 3.72 µM; EC50 [17]: 0.183 µM; agonistic activity for dopamine receptor D2 short isoform ([17]; agonist mode): agonistic activity; potency for DRD2S ([17]; agonist mode): nanomolar level; antagonistic effects at histamine receptor H1 [18]: antagonistic effects; IC50 [18]: 6.29 µM
